Experiment [1] has as its target T1, BRAF V600E (Homo sapiens, UniProt P15056+Q96SW2, V600E).
T1 construct: knock-in of the HiBiT tag to the endogenous BRAF V600E locus; host or cells: A375.10 (A375 clonal line, CRISPR HiBiT knock-in at the endogenous BRAF V600E locus)
Kind of experiment: BRAF V600E HiBiT Degradation Assay. It counts as cell-based. Summed up:
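Endogenous HiBiT knock-in on BRAF V600E in A375 cells (clone A375.10); 11-point half-log series, top 10 μM, 2, 6 or 24 h at 37° C. Lytic HiBiT luminescence, background-subtracted, normalized to DMSO; 4-parameter fit gives DC50, Emax (residual protein) and IP (inflection point).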
(HiBiT is a short tag that completes a luciferase, so light tracks the accessible tagged protein.)

In experiment [2] the test system is A375-NRAS^Q61K cells. Kind of experiment: CTGlo Cell Viability Assay, A375-NRAS^Q61K (A375.11) cells, 96 hours. In kind it is cell-based, human. Particulars: A375.11 (A375-NRAS^Q61K) cells; for Emax / CTGlo A375.11 96 hours Emax: lowest % viability achieved. Summed up: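 A375 cells carrying BRAF V600E and NRAS Q61K were seeded at 250 cells/well with a 10-point half-log dose series (max 10 μM final). After 96 h at 37 °C, viability was read as ATP luminescence (CellTiter-Glo), background-subtracted and normalized to DMSO (100%). GI50 from 4-parameter fit; Emax is the lowest % viability.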

[3] abbreviates: A375.10 cells, BRAF V600E, 2 hours, inflection point, read-out: HiBiT-Degradation A375.10 BRAF 2 hours IP.
Setting [4] is: A375.10 cells, BRAF V600E, 2 hours, read-out: HiBiT-Degradation A375.10 BRAF 2 hours DC50.
Where [5] appears, read: A375.10 cells, BRAF V600E, 2 hours, residual protein remaining, read-out: HiBiT-Degradation A375.10 BRAF 2 hours Emax.
Setting [6] is: A375.10 cells, BRAF V600E, 2 hours, residual protein remaining.
Where [7] appears, read: read-out: HiBiT-Degradation A375.10 BRAF 2 hours DC50, A375.10 cells, BRAF V600E, 2 hours.
Where [8] appears, read: read-out: HiBiT-Degradation A375.10 BRAF 2 hours IP, A375.10 cells, BRAF V600E, 2 hours, inflection point.

Where two headings read alike, the source gives them in different places.

T1 sequence (P15056 whole entry V600E): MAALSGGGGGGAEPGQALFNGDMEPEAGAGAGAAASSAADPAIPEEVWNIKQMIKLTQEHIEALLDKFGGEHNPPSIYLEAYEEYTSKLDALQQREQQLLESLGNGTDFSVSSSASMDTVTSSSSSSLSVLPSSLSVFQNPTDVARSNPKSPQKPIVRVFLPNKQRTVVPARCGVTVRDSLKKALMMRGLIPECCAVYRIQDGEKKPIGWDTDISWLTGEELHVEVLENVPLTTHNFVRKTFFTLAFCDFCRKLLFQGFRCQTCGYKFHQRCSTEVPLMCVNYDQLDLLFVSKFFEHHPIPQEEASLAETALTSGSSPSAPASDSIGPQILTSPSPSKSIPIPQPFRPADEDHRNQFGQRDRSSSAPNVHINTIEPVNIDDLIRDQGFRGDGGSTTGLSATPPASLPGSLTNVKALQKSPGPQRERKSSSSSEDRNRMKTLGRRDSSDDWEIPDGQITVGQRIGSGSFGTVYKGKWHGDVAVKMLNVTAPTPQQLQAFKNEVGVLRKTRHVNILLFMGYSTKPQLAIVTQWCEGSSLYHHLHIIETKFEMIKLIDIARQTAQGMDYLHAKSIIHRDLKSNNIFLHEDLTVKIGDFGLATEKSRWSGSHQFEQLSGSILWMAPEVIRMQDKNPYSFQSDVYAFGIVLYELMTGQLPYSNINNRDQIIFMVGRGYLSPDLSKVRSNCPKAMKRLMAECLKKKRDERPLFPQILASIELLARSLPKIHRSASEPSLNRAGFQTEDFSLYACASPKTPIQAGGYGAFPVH
T1 sequence (Q96SW2 whole entry): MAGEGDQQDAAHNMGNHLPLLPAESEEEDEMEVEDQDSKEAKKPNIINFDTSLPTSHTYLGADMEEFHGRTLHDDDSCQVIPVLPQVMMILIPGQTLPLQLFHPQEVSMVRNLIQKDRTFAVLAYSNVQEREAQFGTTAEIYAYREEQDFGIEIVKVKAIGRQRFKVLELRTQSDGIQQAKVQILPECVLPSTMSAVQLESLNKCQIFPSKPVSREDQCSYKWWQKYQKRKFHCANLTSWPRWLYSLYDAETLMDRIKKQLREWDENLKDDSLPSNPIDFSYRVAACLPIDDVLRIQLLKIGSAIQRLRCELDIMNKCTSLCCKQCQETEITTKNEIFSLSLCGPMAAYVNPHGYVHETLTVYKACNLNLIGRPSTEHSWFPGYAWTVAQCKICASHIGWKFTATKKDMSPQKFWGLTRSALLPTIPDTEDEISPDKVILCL
T1 sequence (Q16531 whole entry partner): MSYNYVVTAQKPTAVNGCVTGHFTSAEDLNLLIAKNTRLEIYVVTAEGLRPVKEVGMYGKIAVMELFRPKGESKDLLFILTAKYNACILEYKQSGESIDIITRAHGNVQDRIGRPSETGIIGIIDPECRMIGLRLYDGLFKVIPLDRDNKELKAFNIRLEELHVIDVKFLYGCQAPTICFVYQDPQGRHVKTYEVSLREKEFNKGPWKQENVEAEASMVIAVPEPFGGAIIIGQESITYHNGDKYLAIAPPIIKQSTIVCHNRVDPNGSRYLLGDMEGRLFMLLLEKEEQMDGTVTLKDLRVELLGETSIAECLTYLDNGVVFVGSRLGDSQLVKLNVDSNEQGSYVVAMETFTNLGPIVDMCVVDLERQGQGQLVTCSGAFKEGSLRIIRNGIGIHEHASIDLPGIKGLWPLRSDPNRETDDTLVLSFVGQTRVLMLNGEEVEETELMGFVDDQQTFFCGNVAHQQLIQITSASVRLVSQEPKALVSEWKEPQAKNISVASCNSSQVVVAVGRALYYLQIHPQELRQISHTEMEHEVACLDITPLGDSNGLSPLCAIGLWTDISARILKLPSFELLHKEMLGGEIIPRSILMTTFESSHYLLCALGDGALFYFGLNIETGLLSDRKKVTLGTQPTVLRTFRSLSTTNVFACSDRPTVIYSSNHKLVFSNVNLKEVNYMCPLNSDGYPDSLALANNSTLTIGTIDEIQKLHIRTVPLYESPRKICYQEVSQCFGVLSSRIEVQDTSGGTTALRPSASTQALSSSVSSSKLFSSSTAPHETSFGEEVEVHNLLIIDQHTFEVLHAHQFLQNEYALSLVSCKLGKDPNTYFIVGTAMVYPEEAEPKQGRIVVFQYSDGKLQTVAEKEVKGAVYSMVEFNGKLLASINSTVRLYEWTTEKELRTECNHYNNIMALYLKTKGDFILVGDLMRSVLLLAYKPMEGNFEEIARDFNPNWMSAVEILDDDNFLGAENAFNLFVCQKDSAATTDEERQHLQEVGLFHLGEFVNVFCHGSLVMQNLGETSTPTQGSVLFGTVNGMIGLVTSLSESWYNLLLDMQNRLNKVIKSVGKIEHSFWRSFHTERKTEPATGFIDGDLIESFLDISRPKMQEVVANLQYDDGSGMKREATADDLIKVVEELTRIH

Take `CN(CCO)S(=O)(=O)Nc1ccc(F)c(Oc2ccc3ncc([C@H]4COC5(CCN(C6CCC(c7cc8c(cc7F)c(N7CCC(=O)NC7=O)nn8C)CC6F)CC5)C4)nc3c2)c1C#N` (single isomer, unassigned) [Compound 170]: the figures for the DC50 in experiment [1] (setting [3]) and in experiment [1] (setting [4]) were under 1 µM and over 10 µM, respectively. For the same compound, the Emax in experiment [1] (setting [5]) fell in the range of 50 to 90%; in experiment [2] (Homo sapiens, 96 h) it was 50 to 90%. The compound further registered a GI50 in experiment [2] (Homo sapiens, 96 h) of 1 to 10 µM.
For the compound `CO[C@H]1CCN(S(=O)(=O)Nc2ccc(F)c(Oc3ccc4ncc(C5CC6(CCN(C7CCC(c8cc9c(cc8F)c(N8CCC(=O)NC8=O)nn9C)CC7)CC6)C5)nc4c3)c2C#N)C1` (single isomer, unassigned) [Compound 276], the “HiBiT-Degradation A375.10 BRAF 2 hours IP” value in experiment [1] (A375.10 cells, BRAF V600E, 2 hours, inflection point) was “*** (<=1 μM)”. The “HiBiT-Degradation A375.10 BRAF 2 hours Emax” value in experiment [1] (setting [6]) was “** (<90% and >50%)”. In addition, the DC50 in experiment [1] (setting [7]) is under 1 µM. Besides, in experiment [2], the GI50 is 1 to 10 µM; the “CTGlo A375.11 96 hours Emax” value is “** (<90% and >50%)”.
In the case of `CCN(C)S(=O)(=O)Nc1ccc(F)c(Oc2ccc3ncn([C@H]4COC5(CCN(C6CC7(C6)CN(c6cc8c(cc6F)c(N6CCC(=O)NC6=O)nn8C)C7)CC5)C4)c(=O)c3c2)c1F` [Compound 186, (3R)-8-[2-[3-(2,4-dioxohexahydropyrimidin-1-yl)-5-fluoro-1-methyl-indazol-6-yl]-2-azaspiro[3.3]heptan-6-yl]-3-[6-[3-[[ethyl(methyl)sulfamoyl]amino]-2,6-difluoro-phenoxy]-4-oxo-quinazolin-3-yl]-1-oxa-8-azaspiro[4.5]decane], the Emax is 50 to 90% in experiment [1] (setting [5]) and over 90% in experiment [2] (Homo sapiens, 96 h). Further, the DC50 in experiment [1] (setting [7]) and in experiment [1] (setting [8]) was under 1 µM throughout. In experiment [2] (Homo sapiens, 96 h), the GI50 lay in the range of 1 to 10 µM.
Turning to `CCN(C)S(=O)(=O)Nc1ccc(F)c(Oc2ccc3ncc(CCC4CCN(C5CCC(c6ccc(NC7CCC(=O)NC7=O)cc6F)CC5)CC4)nc3c2)c1C#N` (single isomer, unassigned) [Compound 132, 7-[2-cyano-3-[[ethyl(methyl)sulfamoyl]amino]-6-fluoro-phenoxy]-2-[2-[1-[4-[4-[(2,6-dioxo-3-piperidyl)amino]-2-fluoro-phenyl]cyclohexyl]-4-piperidyl]ethyl]quinoxaline], the DC50 in experiment [1] (setting [3]) and in experiment [1] (setting [4]) was under 1 µM in each case. In experiment [1] (setting [6]), the “HiBiT-Degradation A375.10 BRAF 2 hours Emax” value is “*** (<=50%)”. Moreover, the concentration for 50% growth inhibition (GI50) in experiment [2] was under 1 µM. Further, the “CTGlo A375.11 96 hours Emax” value in experiment [2] is “** (<90% and >50%)”.
As for `CCN(C)S(=O)(=O)Nc1ccc(F)c(Oc2ccc3ncn([C@@H]4CCC5(CCN(C6CCC(c7cc8c(cc7F)c(N7CCC(=O)NC7=O)nn8C)CC6)CC5)C4)c(=O)c3c2)c1C#N` (single isomer, unassigned) [Compound 32], in experiment [1], the “HiBiT-Degradation A375.10 BRAF 2 hours Emax” value is “** (<90% and >50%)”. Moreover, in experiment [1] (setting [3]), the DC50 was under 1 µM. In addition, the DC50 in experiment [1] (setting [4]) was under 1 µM. In experiment [2], the GI50 fell in the range of 1 to 10 µM and the “CTGlo A375.11 96 hours Emax” value is reported as “*** (<=50%)”.
With `CCN(C)S(=O)(=O)Nc1ccc(F)c(Oc2ccc3ncc(OCC4CCN(C5CC6(C5)CN(c5cc7c(cc5F)c(N5CCC(=O)NC5=O)nn7C)C6)CC4)nc3c2)c1C#N` [Compound 223, 7-[2-cyano-3-[[ethyl(methyl)sulfamoyl]amino]-6-fluoro-phenoxy]-2-[[1-[2-[3-(2,4-dioxohexahydropyrimidin-1-yl)-5-fluoro-1-methyl-indazol-6-yl]-2-azaspiro[3.3]heptan-6-yl]-4-piperidyl]methoxy]quinoxaline], the DC50 in experiment [1] (setting [3]) and in experiment [1] (setting [4]) was under 1 µM each time. Also, the Emax in experiment [1] (setting [5]) was under 50%; in experiment [2] (Homo sapiens, 96 h), 50 to 90%. Also, in experiment [2] (Homo sapiens, 96 h), the 50% growth inhibitory concentration (GI50) was 1 to 10 µM.
As for `CCN(C)S(=O)(=O)Nc1ccc(F)c(Nc2ccc3ncn([C@H]4COC5(CCN(C6CCC(c7cc8c(cc7F)c(N7CCC(=O)NC7=O)nn8C)CC6)CC5)C4)c(=O)c3c2)c1C#N` (single isomer, unassigned) [Compound 65], the DC50 in experiment [1] (setting [3]) is under 1 µM. In experiment [1] (setting [4]), the DC50 was in the range of 1 to 10 µM. Besides, the “HiBiT-Degradation A375.10 BRAF 2 hours Emax” value in experiment [1] (setting [6]) was “** (<90% and >50%)”. Besides, in experiment [2], the 50% growth inhibitory concentration (GI50) was over 10 µM; the “CTGlo A375.11 96 hours Emax” value was “** (<90% and >50%)”.
`CCN(C)S(=O)(=O)Nc1ccc(F)c(Oc2ccc3ncn(C4CC5(CCN(C6CCN(c7cc8c(cc7F)c(N7CCC(=O)NC7=O)nn8C)CC6(F)F)CC5)C4)c(=O)c3c2)c1C#N` (stereo not shown) [Compound 253, 6-[2-cyano-3-[[ethyl(methyl)sulfamoyl]amino]-6-fluoro-phenoxy]-3-[7-[1-[3-(2,4-dioxohexahydropyrimidin-1-yl)-5-fluoro-1-methyl-indazol-6-yl]-3,3-difluoro-4-piperidyl]-7-azaspiro[3.5]nonan-2-yl]-4-oxo-quinazoline]: the DC50 was under 1 µM in experiment [1] (setting [3]) and over 10 µM in experiment [1] (setting [4]). In addition, the Emax in experiment [1] (setting [5]) was 50 to 90%; in experiment [2] (Homo sapiens, 96 h), under 50%. In addition, in experiment [2] (Homo sapiens, 96 h), the GI50 was in the range of 1 to 10 µM.
`CN(CCO)S(=O)(=O)Nc1ccc(F)c(Oc2ccc3ncc(C4CC5(CCN(C6CC7(C6)CN(c6cc8c(cc6F)c(N6CCC(=O)NC6=O)nn8C)C7)CC5)C4)nc3c2)c1C#N` (stereo not shown) [Compound 187, 7-[2-cyano-6-fluoro-3-[[2-hydroxyethyl(methyl)sulfamoyl]amino]phenoxy]-2-[7-[2-[3-(2,4-dioxohexahydropyrimidin-1-yl)-5-fluoro-1-methyl-indazol-6-yl]-2-azaspiro[3.3]heptan-6-yl]-7-azaspiro[3.5]nonan-2-yl]quinoxaline]: the Emax in experiment [1] (setting [5]) was in the range of 50 to 90%; in experiment [2] (Homo sapiens, 96 h) it was 50 to 90%. Besides, the results for the DC50 in experiment [1] (setting [7]) and in experiment [1] (setting [8]) were 1 to 10 µM and under 1 µM, respectively. In experiment [2] (Homo sapiens, 96 h), this compound showed a 50% growth inhibitory concentration (GI50) of over 10 µM.
As for `CCN(C)S(=O)(=O)Nc1ccc(F)c(Oc2ccc3ncn(C4CC5(CCN(CC6CCN(c7cc8c(cc7F)c(N7CCC(=O)NC7=O)nn8C)CC6)CC5)C4)c(=O)c3c2)c1C#N` [Compound 255, 6-[2-cyano-3-[[ethyl(methyl)sulfamoyl]amino]-6-fluoro-phenoxy]-3-[7-[[1-[3-(2,4-dioxohexahydropyrimidin-1-yl)-5-fluoro-1-methyl-indazol-6-yl]-4-piperidyl]methyl]-7-azaspiro[3.5]nonan-2-yl]-4-oxo-quinazoline], the DC50 in experiment [1] (setting [3]) and in experiment [1] (setting [4]) was under 1 µM each time. The Emax in experiment [1] (setting [5]) lay within 50 to 90%; in experiment [2] (Homo sapiens, 96 h), 50 to 90%. The compound also came in with a 50% growth inhibitory concentration (GI50) in experiment [2] (Homo sapiens, 96 h) of over 10 µM.
On to `CCN(C)S(=O)(=O)Nc1ccc(F)c(Oc2ccc3ncn(C4CC5(C4)CN(C4CC6(CCN(c7cc8c(cc7F)c(N7CCC(=O)NC7=O)nn8C)CC6)C4)C5)c(=O)c3c2)c1C#N` (stereo not shown) [Compound 314, 6-[2-cyano-3-[[ethyl(methyl)sulfamoyl]amino]-6-fluoro-phenoxy]-3-[2-[7-[3-(2,4-dioxohexahydropyrimidin-1-yl)-5-fluoro-1-methyl-indazol-6-yl]-7-azaspiro[3.5]nonan-2-yl]-2-azaspiro[3.3]heptan-6-yl]-4-oxo-quinazoline], for which the DC50 was under 1 µM in experiment [1] (setting [3]); under 1 µM in experiment [1] (setting [4]); under 1 µM in experiment [1] (A375.10 cells, HiBiT, BRAF V600E, 24 hours, read-out: HiBiT-Degradation A375.10 BRAF 24 hours DC50); under 1 µM in experiment [1] (A375.10 cells, HiBiT, BRAF V600E, 24 hours, read-out: HiBiT-Degradation A375.10 BRAF 24 hours IP). For the same compound, the Emax in experiment [1] (setting [5]) is under 50%; in experiment [1] (A375.10 cells, HiBiT, BRAF V600E, 24 hours, read-out: HiBiT-Degradation A375.10 BRAF 24 hours Emax), under 50%; in experiment [2] (Homo sapiens, 96 h) it was 50 to 90%. The same compound gave a GI50 in experiment [2] (Homo sapiens, 96 h) of under 1 µM.

Broadly, the GI50 is the concentration giving 50% growth inhibition. A lower GI50 goes with greater sensitivity of the cells.

These data come from patent publication US20260297060A1, “COMPOUNDS FOR THE DEGRADATION OF MUTANT BRAF” (C4 THERAPEUTICS, INC., priority 2023, published 2026).
